{"source": "patent US20080026986A1", "about": "“REVERSAL OF THE SUPPRESSIVE FUNCTION OF SPECIFIC T CELLS VIA TOLL-LIKE RECEPTOR 8 SIGNALING” (priority 2006, published 2008)", "key": {"PTIL194 and PTIL237": {"system": "PTIL194 and PTIL237", "experiment": "Reversal of suppressive function of PTIL194 and PTIL237 by TLR ligands (naïve CD4+ T cell proliferation)", "type": "cell-based, human", "conditions": "naïve CD4+ T cells:Treg 10:1, OKT3-coated plates, FIG. 5A", "method": "(§1) (C) Expression of TLR8 mRNA in CD4^+ Treg and CD8^+ Treg cell clones generated from PTIL194 by RT-PCR.\n(§2) Naïve CD4^+ T cells were purified from PBMCs by using microbeads (Miltenyi Biotec). Naïve CD4^+ T cells (10^5/well) were cultured with regulatory T cells at a ratio of 10:1 in OKT3 (2 μg/ml)-coated, U bottomed 96-well plates containing the following TLR ligands. […] CpG-A (3 μg/ml), CpG-B (3 μg/ml) and poly-G3 oligonucleotides (3 μg/ml) were synthesized by Integrated DNA Technologies (Coralville, Iowa). All experiments were performed at least more than once.\nCD4^+ CD25-T cells (2×10^5) purified from human PBMCs by antibody-coated beads (Dynal, Inc.) were cultured for 60 hours in U-bottomed 96-well plates containing 5×104 CD3-depleted APCs, 0.1 μg/ml anti-CD3 mAb, and different numbers of CD4^+ regulatory or effector T cells. The proliferation of responder T cells was determined by the incorporation of [H^3]thymidine for the last 16 hours of culture, as previously described (Wang et al., 2004; Wang et al., 2005). Cells were harvested and the radioactivity counted in a scintillation counter. All experiments were performed in triplicate. Transwell experiments were performed in 24-well plates with a pore size of 0.4 μm (Coming Costar, Cambridge, Mass.). 2×10^5 the freshly purified naïve CD4^+ T cells were cultured in the outer wells of 24-well plate in medium containing 0.1 μg/ml anti-CD3 antibody and 2×10^5 APCs. Equal numbers of regulatory T cells or nonregulatory T cells were added into the inner wells in the same medium containing 0.5 μg/ml anti-CD3 antibody and 2×10^5 APCs. After 56 hours of culture, the cells in the outer and inner wells were harvested separately and transferred to 96-well plates. [H^3]thymidine was added, and the cells were cultured for an additional 16 hours before harvest for the radioactivity counting with a liquid scintillation counter.\nas §2, with “use of” for “using”, “following” for “following TLR”, “poly-G” for “poly-G3”, “Iowa).” for “Iowa). All experiments were performed at least more than once.”"}, "BTIL31 γδ1 Treg cells [1]": {"system": "BTIL31 γδ1 Treg cells", "experiment": "Killing of BC31 autologous tumor cells by Poly-G3-treated BTIL31 cells", "type": "cell-based, human", "conditions": "BTIL31 cultured with Poly-G3 for 2 days; FIG. 13C", "method": "(A). Reversal of the suppressive function of γδ 1 T cells by TLR8 ligands, but not by ligands for other TLRs. naïve CD4^+ T cells were cultured with BTIL31 cells at the ratio of 10:1 in the U bottom 96-well plates pre-coated with OKT3 in the presence of different TLR ligands: LPS, CpG-A, CpG-B, Imiquimod-R837, loxoribine, poly (I: C), ssRNA40/LyoVec, RNA33/LyoVec, pam3CSK4, flagellin and Poly-G3. In addition, naïve CD4^+ T cells were cultured in the presence of supernatants derived from BTIL31 cells pre-treated with or without the indicated TLR ligands. The proliferation of naïve CD4^+ T cells was determined by [^3H]-thymidine incorporation assay described herein. Results are one representative data of three independent experiments. (B) Restoration of CFSE-naïve CD4^+ T cell division by Poly-G3 oligonucleotides. CFSE-labeled Naïve CD4^+ T cells cocultured with BTIL31 cells or its clones in the presence or absence of Poly-G3 in OKT3-coated 24-well plates. After 3 days of culture, cells were harvested and analyzed for divisions by FACS gated on the CFSE-labeled cells. CFSE-labeled Naïve CD4^+ T cells alone served as a control. (C) Poly-G treatment had no effect on TRAIL-mediated killing activity. BTIL31 cells were cultured in the presence or absence of Poly-G3 for 2 days, and then tested the ability of Poly-G3-treated and untreated BTIL31 cells to kill BC31 autologous tumor cells. […]"}, "BTIL31 γδ1 Treg cells [2]": {"system": "BTIL31 γδ1 Treg cells", "experiment": "CFSE-labeled naïve CD4+ T cell division in coculture with BTIL31 cells or clones", "type": "cell-based, human", "conditions": "coculture with BTIL31 bulk cells or clones, FACS, FIG. 13B", "method": "(§3) In addition, naïve CD4^+ T cells were cultured in the presence of supernatants derived from BTIL31 cells pre-treated with or without the indicated TLR ligands. The proliferation of naïve CD4^+ T cells was determined by [^3H]-thymidine incorporation assay described herein. […] CFSE-labeled Naïve CD4^+ T cells cocultured with BTIL31 cells or its clones in the presence or absence of Poly-G3 in OKT3-coated 24-well plates. After 3 days of culture, cells were harvested and analyzed for divisions by FACS gated on the CFSE-labeled cells. CFSE-labeled Naïve CD4^+ T cells alone served as a control. […] BTIL31 cells were cultured in the presence or absence of Poly-G3 for 2 days, and then tested the ability of Poly-G3-treated and untreated BTIL31 cells to kill BC31 autologous tumor cells.\n(§4) To test whether the suppressive function of BTIL31 γδ1 Treg cells could be reversed by TLR-8 ligands, cells were treated with a panel of TLR ligands and then test their ability to suppress naïve T cell proliferation. […] After 48 h, CFSE-labeled cells were gated for FACS analysis."}, "BTIL31 γδ1 Treg cells [3]": {"system": "BTIL31 γδ1 Treg cells", "experiment": "Naïve CD4+ T cell proliferation ([3H]-thymidine) in coculture with BTIL31 cells plus TLR ligands", "type": "cell-based, human", "conditions": "naïve CD4+ T cells:BTIL31 10:1, OKT3-coated plates; FIG. 13A", "method": "as §3\nas §2, with “once. […]” for “once.”"}, "BTIL31 γδ1 Treg cells [4]": {"system": "BTIL31 γδ1 Treg cells", "experiment": "Naïve CD4+ T cell proliferation with supernatants from TLR ligand-treated BTIL31 cells", "type": "cell-based, human", "conditions": "FIG. 13A", "method": "as §3, §4"}, "[5]": {"system": "naturally occurring CD4+ CD25+ Treg cells", "experiment": "Reversal of suppressive function of naturally occurring CD4+ CD25+ Treg cells", "type": "cell-based"}, "CD8+ Treg cells": {"system": "CD8+ Treg cells", "experiment": "Naïve T cell proliferation assay with CD8+ Treg cell populations/clones with or without TLR ligands", "type": "cell-based, human", "conditions": "prostate tumor-derived (PTIL194); FIGS. 5A, 5B", "method": "as §1\n(§5) To test this possibility, the suppressive effects of CD4^+ and CD8^+ Treg cells were examined on naïve T cell proliferation in a functional assay, with or without TLR8 ligands (Poly-G2 and ssRNA40) or ligands for other TLRs.\n(§6) CD4^+ CD25-T cells (2×10^5) purified from human PBMCs by antibody-coated beads (Dynal, Inc.) were cultured for 60 hours in U-bottomed 96-well plates containing 5×104 CD3-depleted APCs, 0.1 μg/ml anti-CD3 mAb, and different numbers of CD4^+ regulatory or effector T cells. The proliferation of responder T cells was determined by the incorporation of [H^3]thymidine for the last 16 hours of culture, as previously described (Wang et al., 2004; Wang et al., 2005). Cells were harvested and the radioactivity counted in a scintillation counter. All experiments were performed in triplicate. Transwell experiments were performed in 24-well plates with a pore size of 0.4 μm (Coming Costar, Cambridge, Mass.). 2×10^5 the freshly purified naïve CD4^+ T cells were cultured in the outer wells of 24-well plate in medium containing 0.1 μg/ml anti-CD3 antibody and 2×10^5 APCs. […] [H^3]thymidine was added, and the cells were cultured for an additional 16 hours before harvest for the radioactivity counting with a liquid scintillation counter. […]"}, "CD4+ Treg cells": {"system": "CD4+ Treg cells", "experiment": "Naïve T cell proliferation assay with CD4+ Treg cell populations/clones with or without TLR ligands", "type": "cell-based, human", "conditions": "prostate tumor-derived (PTIL194); FIGS. 5A, 5B", "method": "as §1, §5, §6"}}, "note": "“Also recorded” adds a separate entry of the source.", "data": [{"compound": "poly(I:C)", "values": [{"measurement": "Restoration of Treg cell suppressed proliferation of naïve CD4+ T cells", "setting": "PTIL194 and PTIL237", "value": "no effect"}]}, {"compound": "pam3CSK4", "values": [{"measurement": "Restoration of Treg cell suppressed proliferation of naïve CD4+ T cells", "setting": "PTIL194 and PTIL237", "value": "no effect"}]}, {"compound": "AG*G*GA [Poly-G3]", "values": [{"measurement": "Effect on TRAIL-mediated killing of BC31 tumor cells by BTIL31 cells", "setting": "BTIL31 γδ1 Treg cells [1]", "value": "no effect"}, {"measurement": "Restoration of proliferation or division of CFSE-labeled naïve CD4+ T cells", "setting": "BTIL31 γδ1 Treg cells [2]", "value": "Restoration"}, {"measurement": "Restoration of proliferation or division of CFSE-labeled naïve CD4+ T cells", "setting": "BTIL31 γδ1 Treg cells [2]; listed as poly-G3", "value": "completely restored"}, {"measurement": "Reversal of the suppressive function of BTIL31 γδ1 Treg cells (proliferation of naïve CD4+ T cells)", "setting": "BTIL31 γδ1 Treg cells [3]", "value": "reverse the suppressive function"}, {"measurement": "Effect of supernatants from ligand-treated γδ1 Treg cells on proliferation of naïve CD4+ T cells", "setting": "BTIL31 γδ1 Treg cells [4]", "value": "enhanced rather than inhibited"}]}, {"compound": "CC(C)Cn1cnc2c(N)nc3ccccc3c21", "note": "[imiquimod, Imiquimod]", "values": [{"measurement": "Restoration of Treg cell suppressed proliferation of naïve CD4+ T cells", "setting": "PTIL194 and PTIL237", "value": "no effect"}, {"measurement": "Effect on naturally occurring CD4+ CD25+ Treg cells", "setting": "[5]", "value": "little or no effect"}]}, {"compound": "C=CCn1c(=O)n([C@@H]2O[C@H](CO)[C@@H](O)[C@H]2O)c2nc(N)[nH]c(=O)c21", "note": "[loxoribine]", "values": [{"measurement": "Restoration of Treg cell suppressed proliferation of naïve CD4+ T cells", "setting": "PTIL194 and PTIL237", "value": "no effect"}]}, {"compound": "AAG*GA [Poly-G2]", "values": [{"measurement": "Restoration of Treg cell suppressed proliferation of naïve CD4+ T cells", "setting": "PTIL194 and PTIL237", "value": "Restoration"}, {"measurement": "Reversal of suppressive function of CD8+ Treg-containing cell populations and clones", "setting": "CD8+ Treg cells", "value": "Reversal of suppressive function"}, {"measurement": "Reversal of suppressive function of CD4+ Treg-containing cell populations and Treg cell clones", "setting": "CD4+ Treg cells", "value": "abolished; also recorded: Reversal of suppressive function"}]}]}
